Target: T1, autotaxin (ATX) (Homo sapiens, UniProt Q13822)
T1 construct: conditioned medium from the human melanoma cell line, MDA-MB-4355, which endogenously expresses autotaxin; host or cells: MDA-MB-435S human melanoma cells; serum-free conditioned medium, concentrated 20-fold
Test: Native Autotaxin Choline Release Assay
Type: biochemical
Details: autotaxin in conditioned medium from human melanoma cell line; choline released from LPC; read-out: MDA-MB-435S Assay IC50
Protocol: ATX activity is determined by measuring the amount of choline realeased from the substrate, lyosphophatidylcholine (LPC). […] After reaching confluency, the cells are washed twice with phosphate-buffered saline (PBS) then cultured for 48 hours in phenol-red free, serum-free DMEM containing sodium pyruvate. […] 100 μl of a color mix which contains 4.5 mM 4-aminoantipyrine, 2.7 mM N-ethyl-N-(2-hydroxy-3-sulfopropyl)-m-toluidine, 21 units/ml horseradish peroxidase and 3 units/ml choline oxidase in 50 mM Tris, pH 8, 4.5 mM MgCl2 is added and the incubation continued at 37° C. for 10 minutes before reading the absorbance at 555 nm. The concentration of released choline in the sample is determined from a choline standard curve and is equal to the concentration of LPA produced.

CCn1cc(-n2c(C)c(Sc3cccc(CC(=O)O)c3)c3ccc(Cl)cc32)cn1 [Compound 1-69, {3-[6-Chloro-1-(1-ethyl-1H-pyrazol-4-yl)-2-methyl-1H-indol-3-ylsulfanyl]-phenyl}-acetic acid]
IC50: < 300 nM

CCCn1cc(-n2c(C)c(Sc3cccc(CC(=O)O)c3)c3ccc(Cl)cc32)cn1 [Compound 1-70, {3-[6-Chloro-1-(1-propyl-1H-pyrazol-4-yl)-2-methyl-1H-indol-3-ylsulfanyl]-phenyl}-acetic acid]
IC50: < 300 nM

Cc1c(Sc2cccc(C(=O)O)c2)c2ccc(Cl)cc2n1-c1cnn(-c2ccc(F)cc2)c1 [Compound 1-71, 3-{6-Chloro-1-[1-(4-fluoro-phenyl)-1H-pyrazol-4-yl]-2-methyl-1H-indol-3-ylsulfanyl}-benzoic acid]
IC50: < 300 nM

CCCCn1cc(-n2c(C)c(Sc3cccc(C(=O)O)c3)c3ccc(Cl)cc32)cn1 [Compound 1-72, 3-[1-(1-Butyl-1H-pyrazol-4-yl)-6-chloro-2-methyl-1H-indol-3-ylsulfanyl]-benzoic acid]
IC50: < 300 nM

CCc1cncc(-n2c(C)c(Sc3cccc(C(=O)O)c3F)c3ccc(Cl)cc32)c1 [Compound 1-73, 3-[6-Chloro-1-(5-ethyl-pyridin-3-yl)-2-methyl-1H-indol-3-ylsulfanyl]-2-fluoro-benzoic acid]
IC50: < 300 nM

CCn1cc(-n2c(C)c(Sc3cccc(C4(C(=O)O)CC4)c3)c3ccc(Cl)cc32)cn1 [Compound 1-74, 1-{3-[6-Chloro-1-(1-ethyl-1H-pyrazol-4-yl)-2-methyl-1H-indol-3-ylsulfanyl]-phenyl}-cyclopropanecarboxylic acid]
IC50: < 300 nM

CCn1cc(-n2c(C)c(Sc3cccc(C(=O)O)c3)c3ccc(S(C)(=O)=O)cc32)cn1 [Compound 1-75, 3-[1-(1-Ethyl-1H-pyrazol-4-yl)-6-methanesulfonyl-2-methyl-1H-indol-3-ylsulfanyl]-benzoic acid]
IC50: > 1000 nM

CCn1cc(-n2c(C)c(Sc3ccc(F)c(C(=O)O)c3)c3ccc(Cl)cc32)cn1 [Compound 1-76, 5-[6-chloro-1-(1-ethyl-1H-pyrazol-4-yl)-2-methyl-1H-indol-3-ylsulfanyl]-2-fluoro-benzoic acid]
IC50: < 300 nM

CCn1cc(-n2c(C)c(Sc3cc(F)cc(C(=O)O)c3)c3ccc(Cl)cc32)cn1 [Compound 1-129, 3-[6-Chloro-1-(1-ethyl-1H-pyrazol-4-yl)-2-methyl-1H-indol-3-ylsulfanyl]-5-fluoro-benzoic acid]
IC50: < 300 nM

Cc1ccc(-n2cc(-n3c(C)c(Sc4cccc(C(=O)O)c4)c4ccc(Cl)cc43)cn2)cc1 [Compound 1-130, 3-[6-Chloro-2-methyl-1-(1-p-tolyl-1H-pyrazol-4-yl)-1H-indol-3-ylsulfanyl]-benzoic acid]
IC50: < 300 nM

CCCn1cc(-n2c(C)c(Sc3cccc(C(=O)O)c3F)c3ccc(Cl)cc32)cn1 [Compound 1-131, 3-[6-Chloro-2-methyl-1-(1-propyl-1H-pyrazol-4-yl)-1H-indol-3-ylsulfanyl]-2-fluoro-benzoic acid]
IC50: < 300 nM

CCn1cc(-n2c(C)c(Sc3ccc(C)c(C(=O)O)c3)c3ccc(Cl)cc32)cn1 [Compound 1-132, 5-[6-Chloro-1-(1-ethyl-1H-pyrazol-4-yl)-2-methyl-1H-indol-3-ylsulfanyl]-2-methyl-benzoic acid]
IC50: < 300 nM

Cc1[nH]c2cc(Cl)ccc2c1Sc1cccc(B(O)O)c1 [Compound 2-1, 3-(6-Chloro-2-methyl-1H-indol-3-ylsulfanyl)-phenylboronic acid]
IC50: > 1000 nM

COC(=O)c1cccc(Oc2c(C)n(Cc3ccccc3)c3cc(Cl)ccc23)c1 [Compound 2-3, 3-(1-Benzyl-6-chloro-2-methyl-1H-indol-3-yloxy)-benzoic acid methyl ester]
IC50: > 1000 nM

Cc1c(Oc2cccc(CO)c2)c2ccc(Cl)cc2n1Cc1ccccc1 [Compound 2-4, [3-(1-Benzyl-6-chloro-2-methyl-1H-indol-3-yloxy)-phenyl]-methanol]
IC50: > 1000 nM

Cc1c(Oc2cccc(CC#N)c2)c2ccc(Cl)cc2n1Cc1ccccc1 [Compound 2-5, [3-(1-Benzyl-6-chloro-2-methyl-1H-indol-3-yloxy)-phenyl]-acetonitrile]
IC50: > 1000 nM

Cc1c(Oc2cccc(Cc3nn[nH]n3)c2)c2ccc(Cl)cc2n1Cc1ccccc1 [Compound 2-6, 1-Benzyl-6-chloro-2-methyl-3-[3-(2H-tetrazol-5-ylmethyl)-phenoxy]-1H-indole]
IC50: > 1000 nM

Cc1c(Sc2cccc(/C=C/C(=O)O)c2)c2ccc(Cl)cc2n1Cc1ccccc1 [Compound 2-7, (E)-3-[3-(1-Benzyl-6-chloro-2-methyl-1H-indol-3-ylsulfanyl)-phenyl]-acrylic acid]
IC50: > 1000 nM

Cc1c(Sc2cccc(Cc3nn[nH]n3)c2)c2ccc(Cl)cc2n1Cc1ccccc1 [Compound 2-8, 1-Benzyl-6-chloro-2-methyl-3-[3-(2H-tetrazol-5-ylmethyl)-phenylsulfanyl]-1H-indole]
IC50: > 1000 nM

Cc1c(Sc2cccc(-c3nn[nH]n3)c2)c2ccc(Cl)cc2n1Cc1ccccc1 [Compound 2-9, 1-Benzyl-6-chloro-2-methyl-3-[3-(2H-tetrazol-5-yl)-phenylsulfanyl]-1H-indole]
IC50: > 1000 nM

Cc1c(Sc2cccc(C(=O)NCC[N+](C)(C)C)c2)c2ccc(Br)cc2n1Cc1ccccc1 [Compound 2-10, {2-[3-(1-Benzyl-6-bromo-2-methyl-1H-indol-3-ylsulfanyl)-benzoylamino]-ethyl}-trimethyl-ammonium]
IC50: > 1000 nM

Cc1c(Sc2cccc(C(=O)NCCN(C)C)c2)c2ccc(Br)cc2n1Cc1ccccc1 [Compound 2-11, 3-(1-Benzyl-6-bromo-2-methyl-1H-indol-3-ylsulfanyl)-N-(2-dimethylamino-ethyl)-benzamide]
IC50: > 1000 nM

Cc1c(Sc2cccc(B(O)O)c2)c2ccc(Cl)cc2n1-c1cccnc1 [Compound 2-12, 3-(6-Chloro-2-methyl-1-pyridin-3-yl-1H-indol-3-ylsulfanyl)-phenylboronic acid]
IC50: > 1000 nM

Cc1[nH]c2cc(Cl)ccc2c1Sc1ccccc1CC(=O)O [Compound 3-1, [2-(6-Chloro-2-methyl-1H-indol-3-ylsulfanyl)-phenyl]-acetic acid]
IC50: > 1000 nM

Cc1[nH]c2cc(Cl)ccc2c1Sc1ccc(CC(=O)O)cc1 [Compound 3-2, [4-(6-Chloro-2-methyl-1H-indol-3-ylsulfanyl)-phenyl]-acetic acid]
IC50: > 1000 nM

Cc1[nH]c2ccc(Cl)cc2c1Sc1cccc(CC(=O)O)c1 [Compound 3-3, [3-(5-Chloro-2-methyl-1H-indol-3-ylsulfanyl)-phenyl]-acetic acid]
IC50: > 1000 nM

Cc1[nH]c2c(Cl)cccc2c1Sc1cccc(CC(=O)O)c1 [Compound 3-4, [3-(7-Chloro-2-methyl-1H-indol-3-ylsulfanyl)-phenyl]-acetic acid]
IC50: > 1000 nM

Cc1[nH]c2cccc(F)c2c1Sc1cccc(CC(=O)O)c1 [Compound 3-5, [3-(4-Fluoro-2-methyl-1H-indol-3-ylsulfanyl)-phenyl]-acetic acid]
IC50: > 1000 nM

COc1cccc2[nH]c(C)c(Sc3cccc(CC(=O)O)c3)c12 [Compound 3-6, [3-(4-Methoxy-2-methyl-1H-indol-3-ylsulfanyl)-phenyl]-acetic acid]
IC50: > 1000 nM

O=C(O)c1cccc(Sc2c(C(F)(F)F)[nH]c3cc(Cl)ccc23)c1 [Compound 3-7, 3-(6-Chloro-2-trifluoromethyl-1H-indol-3-ylsulfanyl)-benzoic acid]
IC50: > 1000 nM

Cc1[nH]c2cccc(Cl)c2c1Sc1cccc(B(O)O)c1 [Compound 3-9, 3-(4-Chloro-2-methyl-1H-indol-3-ylsulfanyl)-phenylboronic acid]
IC50: > 1000 nM

Cc1c(Sc2ccccc2CC(=O)O)c2ccc(Cl)cc2n1C [Compound 3-10, [2-(6-Chloro-1,2-dimethyl-1H-indol-3-ylsulfanyl)-phenyl]-acetic acid]
IC50: > 1000 nM

Cc1c(Sc2ccc(CC(=O)O)cc2)c2ccc(Cl)cc2n1C [Compound 3-11, [4-(6-Chloro-1,2-dimethyl-1H-indol-3-ylsulfanyl)-phenyl]-acetic acid]
IC50: > 1000 nM

Cc1c(Sc2cccc(CC(=O)O)c2)c2cc(Cl)ccc2n1C [Compound 3-12, [3-(5-Chloro-1,2-dimethyl-1H-indol-3-ylsulfanyl)-phenyl]-acetic acid]
IC50: > 1000 nM

O=C(O)c1cccc(Sc2c(C(F)(F)F)n(Cc3ccccc3)c3cc(Cl)ccc23)c1 [Compound 3-13, 3-(1-Benzyl-6-chloro-2-trifluoromethyl-1H-indol-3-ylsulfanyl)-benzoic acid]
IC50: > 1000 nM

CCc1c(Sc2cccc(C(=O)O)c2)c2ccc(Cl)cc2n1Cc1ccccc1 [Compound 3-15, 3-(1-Benzyl-6-chloro-2-ethyl-1H-indol-3-ylsulfanyl)-benzoic acid]
IC50: > 1000 nM

CCn1cc(-n2c(C)c(Sc3cccc(C(=O)O)c3)c3ccc(Cl)c(F)c32)cn1 [Compound 3-16, 3-[6-Chloro-1-(1-ethyl-1H-pyrazol-4-yl)-7-fluoro-2-methyl-1H-indol-3-ylsulfanyl]-benzoic acid]
IC50: < 300 nM

O=C(O)c1cccc(Sc2cn(Cc3ccccc3)c3cc(Cl)ccc23)c1 [Compound 3-17, 3-(1-Benzyl-6-chloro-1H-indol-3-ylsulfanyl)-benzoic acid]
IC50: 300 to 1000 nM

O=C(O)c1cccc(Sc2cn(-c3cccnc3)c3cc(Cl)ccc23)c1 [Compound 3-19, 3-(6-Chloro-1-pyridin-3-yl-1H-indol-3-ylsulfanyl)-benzoic acid]
IC50: 300 to 1000 nM

From patent publication US9000025B2, “Autotaxin inhibitors and uses thereof” (Amira Pharmaceuticals, Inc., priority 2010, dated 2015)
